Assay results from ChEMBL document CHEMBL1145809, “Novel (2E,4E,6Z)-7-(2-alkoxy-3,5-dialkylbenzene)-3-methylocta-2,4,6-trienoic acid retinoid X receptor modulators are active in models of type 2 diabetes” (J Med Chem, 2003).
Active and inactive are the calls of the source. No cut-off for these calls is given here.

Tests used:
[1] = target: T1, Retinoic acid receptor gamma (Homo sapiens, UniProt P13631); test: Binding affinity against Retinoic acid receptor gamma was determined in vitro by using [3H]ATRA as radioligand
T1 sequence (P13631 whole entry): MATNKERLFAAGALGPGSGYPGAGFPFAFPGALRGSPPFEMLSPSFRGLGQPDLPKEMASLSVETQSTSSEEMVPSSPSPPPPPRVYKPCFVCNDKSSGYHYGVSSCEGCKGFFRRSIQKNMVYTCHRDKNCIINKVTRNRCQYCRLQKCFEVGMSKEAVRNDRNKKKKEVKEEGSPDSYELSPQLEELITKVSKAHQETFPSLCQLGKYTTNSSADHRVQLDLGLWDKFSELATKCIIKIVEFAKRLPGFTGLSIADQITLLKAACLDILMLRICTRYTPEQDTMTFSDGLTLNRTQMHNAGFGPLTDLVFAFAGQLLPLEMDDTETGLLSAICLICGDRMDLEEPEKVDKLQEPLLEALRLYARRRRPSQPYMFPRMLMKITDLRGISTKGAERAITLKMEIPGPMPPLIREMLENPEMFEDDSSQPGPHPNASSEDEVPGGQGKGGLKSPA

[2] = RXR:RAR synergy expressed as fold induction
RXR alpha/PPAR gamma = RXR alpha/PPAR gamma (Homo sapiens, UniProt P19793)
Description: Transcriptional activity against RXR:PPAR-gamma synergy was determined in vitro

[3] = target: T2, Retinoic acid receptor RXR-alpha (Homo sapiens, UniProt P19793)
T2 sequence (P19793 whole entry): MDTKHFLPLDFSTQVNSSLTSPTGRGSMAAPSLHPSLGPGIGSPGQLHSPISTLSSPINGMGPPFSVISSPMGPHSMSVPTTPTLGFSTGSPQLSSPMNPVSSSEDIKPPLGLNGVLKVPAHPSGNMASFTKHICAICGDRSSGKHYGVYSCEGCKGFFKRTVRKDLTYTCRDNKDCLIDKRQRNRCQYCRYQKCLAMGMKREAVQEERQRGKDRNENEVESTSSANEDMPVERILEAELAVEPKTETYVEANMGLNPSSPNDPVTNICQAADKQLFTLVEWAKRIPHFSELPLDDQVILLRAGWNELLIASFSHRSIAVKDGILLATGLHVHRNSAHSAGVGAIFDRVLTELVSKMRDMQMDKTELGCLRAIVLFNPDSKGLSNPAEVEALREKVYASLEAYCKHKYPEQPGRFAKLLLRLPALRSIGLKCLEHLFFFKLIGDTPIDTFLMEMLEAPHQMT
Description: Binding affinity against Retinoic acid receptor RXR-alpha was determined in vitro by using [3H]9-cis-RA as radioligand

[4] = target: T2, Retinoic acid receptor RXR-alpha; remark: listed apart in the source
Description: Inhibition of Retinoic acid receptor RXR-alpha agonist activity in vitro

[5] = target: T2, Retinoic acid receptor RXR-alpha; test: Inhibitory activity against Retinoic acid receptor RXR-alpha antagonist was determined in vitro; assay type: functional
Mus musculus [6] = test: In vivo hypoglycemic activity, as reduced plasma glucose in db/db mouse type II diabetes model; assay type: functional
Mus musculus [7] = test: In vivo hypoglycemic activity compared to BRL-46953 as reduced plasma glucose in db/db mouse type II diabetes model; assay type: functional
Rattus norvegicus [8] = species: Rattus norvegicus; test: Effect on T4 levels in male Dawley rats at 24 hr r; assay type: functional
Rattus norvegicus [9] = species: Rattus norvegicus; test: Effect on triglyceride level in male Dawley rats at 24 hr r; assay type: functional
[10] = target: T3, Retinoic acid receptor RXR-alpha (Homo sapiens) (UniProt P19793)
T3 sequence (whole entry): T2 sequence (P19793 whole entry)

[11] = Transcriptional activation in CV-1 cells expressing RXR and LXR at 1 uM; assay type: functional

Chain of RXR alpha/PPAR gamma (P37231 whole entry, one chain of several): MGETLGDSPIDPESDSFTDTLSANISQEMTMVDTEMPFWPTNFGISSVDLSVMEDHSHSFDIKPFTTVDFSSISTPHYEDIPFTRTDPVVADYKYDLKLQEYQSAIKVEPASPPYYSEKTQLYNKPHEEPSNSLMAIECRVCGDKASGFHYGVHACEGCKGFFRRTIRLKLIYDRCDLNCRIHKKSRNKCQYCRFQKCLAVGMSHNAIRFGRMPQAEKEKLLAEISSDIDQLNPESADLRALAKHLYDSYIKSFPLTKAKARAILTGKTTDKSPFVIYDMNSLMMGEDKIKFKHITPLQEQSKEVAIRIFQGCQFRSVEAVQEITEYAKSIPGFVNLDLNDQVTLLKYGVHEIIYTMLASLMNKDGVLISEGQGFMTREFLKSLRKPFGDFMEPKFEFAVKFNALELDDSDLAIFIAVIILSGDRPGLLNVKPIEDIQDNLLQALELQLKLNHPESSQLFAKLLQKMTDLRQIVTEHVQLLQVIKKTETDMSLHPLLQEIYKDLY

SMILES | Ki [1] [nM] | Synergy [2] [fold] | EC50 (RXR alpha/PPAR gamma) [nM] | Ki [3] [nM] | EC50 [4] [nM] | IC50 [5] [nM] | Activity (Mus musculus [6]) [mg/dL] | Normalization (Mus musculus [7]) [%] | Activity (Rattus norvegicus [8]) [ng/mL] | Activity (Rattus norvegicus [9]) [mg/dL] | NB [10] | Activation [11] [fold]
CCOc1c(\C(C)=C/C=C/C(C)=C/C(=O)O)cc(C(C)C)cc1C(C)C | 10000 | 5 | 1 | 2 | 2 |  |  |  |  |  |  | 
C/C(=C/C=C/C(C)=C/C(=O)O)c1cc(C(C)(C)C)cc(C(C)(C)C)c1OCC(F)(F)F | 4030 | 1 | 2 |  |  | 8 |  |  |  |  |  | 
CCCOc1c(\C(C)=C/C=C/C(C)=C/C(=O)O)cc(C(C)(C)C)cc1C(C)(C)C | 10000 | 1 | 154 | 14 |  | 43 |  |  |  |  |  | 
CN(CCOc1ccc(CC2SC(=O)NC2=O)cc1)c1ccccn1.O=C(O)/C=C\C(=O)O (stereo not drawn) [ROSIGLITAZONE MALEATE] |  |  |  |  |  |  | 412 | 100 | 70 | 78 | inactive | 
CCC(C)(C)c1cc(\C(C)=C/C=C/C(C)=C/C(=O)O)c(OC)c(C(C)(C)CC)c1 | 10000 | 2 | 6 | 2 | 506 |  |  |  |  |  |  | 
CCCCOc1c(\C(C)=C/C=C/C(C)=C/C(=O)O)cc(C(C)C)cc1C(C)C | 10000 | 1 | 12 | 4 |  | 4 | 502 | 33 | 72 | 63 |  | 0.6
CCCOc1c(\C(C)=C/C=C/C(C)=C/C(=O)O)cc(C(C)C)cc1C(C)C | 10000 | 2 | 5 | 3 |  | 4 |  |  |  |  |  | 
CCOc1c(\C(C)=C/C=C/C(C)=C/C(=O)O)cc(C(C)(C)C)cc1C(C)(C)C | 10000 | 3 | 2 | 11 | 18 | 8 | 412 | 100 | 25 | 92 |  | 2.04
CCOc1c(\C(C)=C/C=C/C(C)=C/C(=O)O)cc(C(C)(C)CC)cc1C(C)(C)CC | 2500 | 2 | 9 | 2 |  | 17 |  |  |  |  |  | 
CCCOc1c(\C(C)=C/C=C/C(C)=C/C(=O)O)cc(C(C)(C)CC)cc1C(C)(C)CC | 10000 | 1 | 19 | 23 |  | 13 |  |  |  |  |  | 
C/C(=C/C=C/C(C)=C/C(=O)O)c1cc(C(C)(C)C)cc(C(C)(C)C)c1OCC(F)F | 10000 | 2 |  |  |  |  | 409 | 101 | 70 | 75 |  | 1.2
Cc1cc2c(cc1C1(c3ccc(C(=O)O)cn3)CC1)C(C)(C)CCC2(C)C |  | 7 |  |  |  |  | 400 | 101 | 37 | 152 |  | 6.3
COc1c(\C(C)=C/C=C/C(C)=C/C(=O)O)cc(C(C)C)cc1C(C)C | 10000 | 10 | 8 | 1 | 2 |  |  |  |  |  |  | 
C/C(=C/C=C/C(C)=C/C(=O)O)c1cc(C(C)C)cc(C(C)C)c1OCC(F)(F)F | 1860 | 2 | 3 | 3 |  | 6 |  |  |  |  |  | 
C/C(=C/C=C/C(C)=C/C(=O)O)c1cc(C(C)C)cc(C(C)C)c1OCC(F)F | 10000 | 3 | 10 | 2 |  | 1 |  |  |  |  |  | 
COc1c(\C(C)=C/C=C/C(C)=C/C(=O)O)cc(C(C)(C)C)cc1C(C)(C)C | 10000 | 3 | 7 | 1 | 36 |  |  |  |  |  |  | 
C/C(=C/C=C/C(C)=C/C(=O)O)c1cc(C(C)C)cc(C(C)C)c1OCCF | 10000 | 4 | 4 | 1 | 7 | 4 |  |  |  |  |  | 
CCC(C)(C)c1cc(\C(C)=C/C=C/C(C)=C/C(=O)O)c(OCC(F)F)c(C(C)(C)CC)c1 | 10000 | 1 | 11 |  |  | 16 |  |  |  |  |  | 
